This test has as its target T1, 17β-HSD10 (Homo sapiens, UniProt Q99714).
T1 construct: Histev (histidine tag with TEV site) (N, cleaved yes); made in house; host or cells: E. coli BL21-CodonPlus
T1 sequence (Q99714 1-261): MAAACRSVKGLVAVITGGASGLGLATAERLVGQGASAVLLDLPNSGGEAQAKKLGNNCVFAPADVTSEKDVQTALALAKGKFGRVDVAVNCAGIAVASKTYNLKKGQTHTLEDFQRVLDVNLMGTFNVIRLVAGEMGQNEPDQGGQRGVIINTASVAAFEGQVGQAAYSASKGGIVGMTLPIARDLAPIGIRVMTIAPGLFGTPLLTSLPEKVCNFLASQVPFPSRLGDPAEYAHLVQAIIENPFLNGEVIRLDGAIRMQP
In words: 17β-HSD10 (ABAD) enzyme inhibition assay, NADH oxidation read at 340 nm (primary screen and dose response). Type of test: biochemical. The note with it: for EC50 / Max. Effect (%) / Hill Slope / Max. Fit / Min. Fit: recombinant 17βHSD10 enzyme assay; for Hill Slope / Max. Fit / Min. Fit: curve fit. In short, it runs like this:
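Tag-cleaved recombinant human 17β-HSD10 (2.5 nM) preincubated 15 min with compound in Tris pH 7.4, NaCl, DTT, Tween, BSA (catalase in some runs), then 100 μM acetoacetyl-CoA and NADH added. NADH oxidation by A340 fall: 35 min endpoint for screening at 10 μM; continuous 45 min for dose response.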

The record followed here is patent publication US20260132123A1, “ABAD INHIBITOR COMPOUNDS” (UNIVERSITY COURT OF THE UNIVERSITY OF ST ANDREWS, priority 2021, published 2026).

The term EC50 denotes the concentration needed to bring the measured effect to its halfway point.

As for `COc1cccc(-c2ccccc2[C@H]2CCCN2C(=O)c2ccc(C)s2)c1` [ESC1002426], the EC50 was greater than 20 µM and the “Max. Effect (%)” value is reported as 22%.

As for `COc1cccc(-c2ccccc2[C@H]2CCCN2C(=O)c2sc(C)nc2C)c1` [ESC1002427], the EC50 was greater than 20 µM and the “Max. Effect (%)” value came out at 4%.

Regarding `COc1cccc(-c2ccccc2[C@H]2CCCN2C(=O)c2cc(C)cs2)c1` [ESC1002428], the concentration giving a half-maximal response (EC50) was greater than 20 µM and the “Max. Effect (%)” value amounted to 16%.

As to `COc1cccc(-c2ccccc2[C@H]2CCCN2C(=O)c2snnc2C)c1` [ESC1002429], the “17β-HSD10 / ABAD activity in words (SAR discussion)” value (shortened to “17β-HSD10 / ABAD activity in words”) is “significantly less active”, the EC50 was greater than 20 µM and the “Max. Effect (%)” value was 6%.

As for `COc1cccc(-c2ccccc2[C@H]2CCCN2C(=O)c2scnc2C)c1` [ESC1002430], the “17β-HSD10 / ABAD activity in words” value is “significantly less active”, the half-maximal effective concentration (EC50) is 6.03 µM, the “Max. Effect (%)” value came out at 65% and the “Hill Slope” value amounted to 1.2. The “Max. Fit” value came out at 80 and the “Min. Fit” value is −1.

Regarding `COc1cccc(-c2ccccc2[C@H]2CCCN2C(=O)c2sccc2F)c1` [ESC1002431], the 50% effective concentration (EC50) was 0.977 µM, the “Max. Effect (%)” value is reported as 96%, the “Hill Slope” value was 1.5 and the “Max. Fit” value was 95. For the same molecule, the “Min. Fit” value was determined as 1.

For the molecule `COc1cccc(-c2ccccc2[C@H]2CCCN2C(=O)c2sccc2OC)c1` [ESC1002433], the EC50 is greater than 20 µM and the “Max. Effect (%)” value was 17%.

As to `COc1cccc(-c2ccccc2[C@H]2CCCN2C(=O)c2ccccc2C)c1` [ESC1002434], the “17β-HSD10 / ABAD activity in words” value was “not tolerated”, the EC50 is greater than 20 µM and the “Max. Effect (%)” value came to 20%.

Turning to `COc1cccc(-c2ccccc2[C@H]2CCCN2C(=O)C2CCOCC2)c1` [ESC1002435], the concentration for a half-maximal effect (EC50) was greater than 20 µM and the “Max. Effect (%)” value stood at 12%.

As for `COc1cccc(-c2ccccc2[C@H]2CCCN2C(=O)C2CCN(C)CC2)c1` [ESC1002436], the half-maximal effective concentration (EC50) was greater than 20 µM and the “Max. Effect (%)” value turned out to be 2%.

`CC(C)CN(C(=O)c1ccc(F)cc1F)c1cccc(N(C)Cc2c[nH]cn2)c1` [ESC1002454, 2,4-difluoro-N-[3-[1H-imidazol-4-ylmethyl(methyl)amino]phenyl]-N-isobutyl-benzamide]: the concentration giving a half-maximal response (EC50) was 0.457 µM, the “Max. Effect (%)” value is 96%, the “Hill Slope” value is recorded as 1.1 and the “Max. Fit” value was 97. The “Min. Fit” value is given as −8.

For the molecule `CC(C)CN(C(=O)c1ccc(C(F)(F)F)cc1F)c1cccc(N(C)Cc2c[nH]cn2)c1` [ESC1002455, 2-fluoro-N-[3-[1H-imidazol-4-ylmethyl(methyl)amino]phenyl]-N-isobutyl-4-(trifluoromethyl)benzamide], the 50% effective concentration (EC50) was 1.26 µM, the “Max. Effect (%)” value worked out at 92%, the “Hill Slope” value is on record as 0.99 and the “Max. Fit” value was 97. Further, the “Min. Fit” value is −7.

Turning to `CC(C)CN(C(=O)c1ccccc1Cl)c1cccc(N(C)Cc2c[nH]cn2)c1` [ESC1002457, 2-chloro-N-[3-[1H-imidazol-4-ylmethyl(methyl)amino]phenyl]-N-isobutyl-benzamide], the half-maximal effective concentration (EC50) was 0.447 µM, the “Max. Effect (%)” value came to 95%, the “Hill Slope” value is listed as 1.4 and the “Max. Fit” value turned out to be 94. Further, the “Min. Fit” value is −4.

Regarding `COc1ccccc1C(=O)N(CC(C)C)c1cccc(N(C)Cc2c[nH]cn2)c1` [ESC1002458], the EC50 was 0.55 µM, the “Max. Effect (%)” value is listed as 96%, the “Hill Slope” value was 1 and the “Max. Fit” value is recorded as 97. Further, the “Min. Fit” value is −7.

On to `CCc1ccc(C(=O)N(CC(C)C)c2cccc(N(C)Cc3c[nH]cn3)c2)cc1` [ESC1002459, 4-ethyl-N-[3-[1H-imidazol-4-ylmethyl(methyl)amino]phenyl]-N-isobutyl-benzamide], for which the EC50 is 0.832 µM, the “Max. Effect (%)” value is recorded as 93%, the “Hill Slope” value worked out at 1.2 and the “Max. Fit” value came to 94. Further, the “Min. Fit” value is listed as −4.

For the molecule `CC(C)CN(C(=O)c1ccc(Cl)s1)c1cccc(N(C)Cc2c[nH]cn2)c1` [ESC1002460, 5-chloro-N-[3-[1H-imidazol-4-ylmethyl(methyl)amino]phenyl]-N-isobutyl-thiophene-2-carboxamide], the 50% effective concentration (EC50) was 1.2 µM, the “Max. Effect (%)” value is given as 90%, the “Hill Slope” value stood at 1 and the “Max. Fit” value is 95. Also, the “Min. Fit” value is recorded as −5.

Turning to `Cc1ccsc1C(=O)N1CCC[C@@H]1c1ccccc1-c1ccccc1` [ESC1002462], the concentration giving a half-maximal response (EC50) was 0.234 µM, the “Max. Effect (%)” value is on record as 99%, the “Hill Slope” value is listed as 1.4 and the “Max. Fit” value was 98. Moreover, the “Min. Fit” value was 6.

`Cc1ccsc1C(=O)N1CCC[C@@H]1c1ccccc1-c1cnn(CCO)c1` [ESC1002463]: the half-maximal effective concentration (EC50) is 3.47 µM, the “Max. Effect (%)” value worked out at 87%, the “Hill Slope” value amounted to 0.79 and the “Max. Fit” value came to 110. For the same molecule, the “Min. Fit” value is reported as −6.

Take `Cc1ccsc1C(=O)N1CCC[C@@H]1c1ccccc1-c1c[nH]nc1C` [ESC1002464]: the EC50 is 2.04 µM, the “Max. Effect (%)” value was 84%, the “Hill Slope” value is listed as 1.1 and the “Max. Fit” value was determined as 91. Further, the “Min. Fit” value was −5.

`Cc1ccsc1C(=O)N1CCC[C@@H]1c1ccccc1-c1c[nH]nc1C(F)(F)F` [ESC1002465]: the concentration for a half-maximal effect (EC50) was 1.51 µM, the “Max. Effect (%)” value is reported as 87%, the “Hill Slope” value worked out at 1.2 and the “Max. Fit” value is listed as 90. Further, the “Min. Fit” value is recorded as −2.

Take `Cc1ccsc1C(=O)N1CCC[C@@H]1c1ccccc1-c1cnn(C2CCNCC2)c1` [ESC1002466]: the concentration giving a half-maximal response (EC50) was 18.2 µM, the “Max. Effect (%)” value is 52%, the “Hill Slope” value is 1 and the “Max. Fit” value stood at 95. In addition, the “Min. Fit” value is listed as −1.

`Cc1ccccc1C(=O)N(CC(C)C)c1cccc(N(C)Cc2c[nH]cn2)c1` [ESC1002491, N-[3-[1H-imidazol-4-ylmethyl(methyl)amino]phenyl]-N-isobutyl-2-methyl-benzamide]: the 50% effective concentration (EC50) is 1.17 µM, the “Max. Effect (%)” value is on record as 96%, the “Hill Slope” value came out at 1 and the “Max. Fit” value was 102. In addition, the “Min. Fit” value is on record as 2.

With `Cc1ccc(C(=O)N(CC(C)C)c2cccc(N(C)Cc3c[nH]cn3)c2)c(C)c1` [ESC1002492, N-[3-[1H-imidazol-4-ylmethyl(methyl)amino]phenyl]-N-isobutyl-2,4-dimethyl-benzamide], the EC50 was 0.871 µM, the “Max. Effect (%)” value was 93%, the “Hill Slope” value was found to be 0.73 and the “Max. Fit” value is 104. The “Min. Fit” value is listed as −10.

For `CC(C)CN(C(=O)c1ccccc1C(F)(F)F)c1cccc(N(C)Cc2c[nH]cn2)c1` [ESC1002493, N-[3-[1H-imidazol 4-ylmethyl(methyl)amino]phenyl]-N-isobutyl-2-(trifluoromethyl)benzamide], the half-maximal effective concentration (EC50) was 0.977 µM, the “Max. Effect (%)” value is 94%, the “Hill Slope” value is given as 0.75 and the “Max. Fit” value came to 104. Moreover, the “Min. Fit” value was −8.

For `COc1cccc(-c2ccccc2[C@H]2CCCN2Cc2ccccc2)c1` [ESC1002504], the EC50 was greater than 20 µM and the “Max. Effect (%)” value is on record as −6%.

Take `COc1cccc(-c2ccccc2[C@H]2CCCN2C(C)c2ccccc2)c1` (stereo partly shown) [ESC1002505]: the concentration for a half-maximal effect (EC50) was greater than 20 µM and the “Max. Effect (%)” value came to 3%.

For the molecule `COc1cccc(-c2ccccc2[C@H]2CCCN2C(=O)Cc2ccccc2)c1` [ESC1002506], the EC50 was greater than 20 µM and the “Max. Effect (%)” value stood at 8%.

Take `CC(=O)NCCCN(C)c1cccc(N(CC(C)C)C(=O)c2ccccc2F)c1` [ESC1002507]: the EC50 is greater than 20 µM and the “Max. Effect (%)” value came to 4%.

Turning to `CCCCN(C(=O)c1ccccc1F)c1cccc(N(C)Cc2c[nH]cn2)c1` [ESC1002508, N-butyl-2-fluoro-N-[3-[1H-imidazol-4-ylmethyl(methyl)amino]phenyl]benzamide], the EC50 was 1.55 µM, the “Max. Effect (%)” value was 92%, the “Hill Slope” value turned out to be 1.2 and the “Max. Fit” value is given as 96. Moreover, the “Min. Fit” value was determined as 0.

As to `Cc1cc(CN(C(=O)c2ccccc2F)c2cccc(N(C)Cc3c[nH]cn3)c2)no1` [ESC1002516, 2-fluoro-N-[3-[1H-imidazol-4-ylmethyl(methyl)amino]phenyl]-N-[(5-methylisoxazol-3-yl)methyl]benzamide], the EC50 was greater than 20 µM and the “Max. Effect (%)” value is listed as 46%.

On to `CN(Cc1c[nH]cn1)c1cccc(N(CC(C)(C)C)C(=O)c2ccccc2F)c1` [ESC1002517, N-(2,2-dimethylpropyl)-2-fluoro-N-[3-[1H-imidazol-4-ylmethyl(methyl)amino]phenyl]benzamide], for which the EC50 was 2 µM, the “Max. Effect (%)” value is on record as 92%, the “Hill Slope” value came to 0.87 and the “Max. Fit” value stood at 106. The “Min. Fit” value was −1.

Turning to `CC(C)CN(C(=O)c1ccccc1F)c1cccc(N(C)CC(N)=O)c1` [ESC1002570], the 50% effective concentration (EC50) is greater than 20 µM and the “Max. Effect (%)” value worked out at 48%.
